In one assay the target is T1, PDE3A (Homo sapiens, UniProt Q14432).
T1 construct: purchased Sino Biological 11908-H20B1
The assay can be described thus: PDE3A fluorescence polarization (FP) assay. Particulars: 2 nM PDE3A, 0.2 μM FAM-cAMP, read-out: IC50 (μM), PDE3A enzyme activity. Format: biochemical. The protocol:
A PDE3A fluorescence polarization (FP) assay in a multi-step format was performed using black, round bottom 384-well plates (Corning, 4514). The testing compounds were serially diluted from stock solutions to 11 concentrations with a 3-fold dilution factor using DMSO. Fifty nL of compound dilutions was mixed with 5 μL of reaction buffer (10 mM Tris-HCl, pH 7.2, 10 mM MgCl2, 0.05% NaN3, 0.1% phosphate-free BSA) containing 0.2 μM FAM-cAMP (BPS, 60200) and 2 nM PDE3A (Sino Biological, 11908-H20B1) enzyme, and incubated for 60 min at 25° C. Afterwards, 15 μL binding agent mixture (Molecular Devices, R8124) was added to each well and the plate was incubated for 60 min at 25° C. The plate was loaded to a BMG PHERAstar FSX to read Fluorescence Polarization (FP) values at a setting of: Ex: 485 nm and Em: 520 nm. Emission light intensity with polarizers parallel (Em|) and emission light intensity with polarizers perpendicular (Em⊥) were recorded. The Polarization (mP) values were calculated using the following formula: mP=(SignalEm|−SignalEm⊥)/(SignalEm|+SignalEm⊥).
Data analysis: • 1) The inhibition % of a compound dose is calculated as:
[formula] • wherein mPMin and mPMax refer to the polarization readings in the condition of substrate only and substrate+enzyme, respectively. • 2) The IC50 values were calculated from non-linear curve fitting using following regression equation using a commercial curve fitting software GraphPad Prism 9.2.0.
wherein X refers to Log of compound concentration and Y refers to % Inhibition.
Table 3 summarize the inhibitory effects of compounds on PDE3A enzyme activity (IC50).

For the next assay, the system named is MDA-MB-436 cells. The assay can be described thus: Growth inhibition assay against BRCA mutant human breast cancer MDA-MB-436 cell line (CCK-8, 7 days). It counts as cell-based. The note with it: 168 h, MDA-MB-436, 7 days, read-out: IC50 (nM), proliferation of human breast cancer cells MDA-MB-436. The method, then: The cells were cultured in complete medium (DMEM medium+10% FBS+Insulin+glutathione). When the confluence reached about 80%, cells were digested and gently dispensed from the bottom of the dish with a 1 mL pipette. Cell suspension was collected and centrifuged at 500 rpm for 3 min. The supernatant was discarded, and the cell pellet were re-suspended in complete medium. The cells were seeded into a culture dish at an appropriate proportion, and then cultured in a 5% CO2 incubator at 37° C. The assay was carried out when the cells were in optimum condition and the confluence was reached 80%. Cells in the logarithmic growth phase were taken to centrifugate, and the culture supernatant was removed. The cells were resuspended in refresh complete medium and counted. The resuspended cells were seeded at 3000/well in a 96-well plate and incubated at 37° C., 5% CO2 incubator overnight. […] The solution was mixed by oscillation. 0.10% DMSO was used as the control.
The next day, the 96-well plate inoculated with cells was taken out from the incubator, and the culture supernatant was removed. Then fresh medium of 195 uL/well and 5 μL/well of 40× test compound solution as mentioned above were added into the 96 well plate, respectively. Finally, the plate was incubated for 7 days in a 37° C. 5% CO2 incubator. The medium containing compound was changed on the fourth day. After 7 days, 20 μL of CCK-8 was added to each well and shaken gently, then was cultured for 4 hours. The plate was shaken for 5 min after incubation, the absorbance values of 450 nm or 650 nm wavelengths were recorded respectively (OD=absorbance value of 450 nm−absorbance value of 650 nm) by using the multifunction readout instrument.
Data were analyzed by software GraphPad Prism 6.0. The inhibitory activity of compounds on cell proliferation was plotted using cell survival rate against the compound concentration as coordinates. Cell survival rate %=(ODcompound−ODbackground)/(ODDMSO−ODbackground)×100.
Table 2 summarizes the inhibitory effect data (IC50) of the compounds on the proliferation of human breast cancer cells MDA-MB-436.

The target in assay [1] is recombinant poly(ADP-ribose) polymerase 2 (PARP2) (Homo sapiens, UniProt Q9UGN5). The assay can be described thus: PARP2 chemiluminescent assay. Format: biochemical. The note with it: PARP2 enzyme activity, chemiluminescence, 40 ng enzyme/well. The method, then:
The solution of recombinant poly(ADP-ribose) polymerase 1 and 2 (PARP1 and PARP2) (40 ng enzyme/well) and the compounds to be tested were mixed, respectively. The solutions were added to a 96-well plate coated with histone mixture, incubated at room temperature for 1 h, then 50 μL 0.3 ng/mL Streptavidin-HRP was added to each well. The plates were incubated for 30 minutes at room temperature. Finally, the plates were treated with streptavidin-HRP followed by addition of the ELISA ECL substrate to produce chemiluminescence that can be measured using a chemiluminescence reader. Inhibition of the tested compound to PARP1/2 enzyme activity was calculated according to the following formula. [formula] IC50 value is obtained by fitting the s-shaped dose response curve equation by using XL Fit software.

SMILES strings stand for the structures.

recombinant poly(ADP-ribose) polymerase 2 (PARP2), sequence (Q9UGN5 whole entry): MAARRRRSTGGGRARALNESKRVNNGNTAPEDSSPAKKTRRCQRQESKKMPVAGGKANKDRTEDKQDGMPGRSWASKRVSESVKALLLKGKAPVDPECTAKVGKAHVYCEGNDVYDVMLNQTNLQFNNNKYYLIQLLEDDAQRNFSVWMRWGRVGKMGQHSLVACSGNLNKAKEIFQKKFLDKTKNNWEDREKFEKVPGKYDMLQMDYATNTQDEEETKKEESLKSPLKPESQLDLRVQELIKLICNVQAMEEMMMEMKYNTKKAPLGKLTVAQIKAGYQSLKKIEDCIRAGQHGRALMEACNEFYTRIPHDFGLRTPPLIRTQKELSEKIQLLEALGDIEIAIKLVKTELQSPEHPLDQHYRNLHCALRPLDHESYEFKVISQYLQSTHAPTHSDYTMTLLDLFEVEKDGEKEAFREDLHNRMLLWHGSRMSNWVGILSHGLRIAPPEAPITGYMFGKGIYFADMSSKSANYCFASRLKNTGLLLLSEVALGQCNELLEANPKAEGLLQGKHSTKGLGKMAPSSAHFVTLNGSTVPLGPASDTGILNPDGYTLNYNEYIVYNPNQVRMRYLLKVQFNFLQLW
T1 sequence (Q14432 669-1141 limits assumed): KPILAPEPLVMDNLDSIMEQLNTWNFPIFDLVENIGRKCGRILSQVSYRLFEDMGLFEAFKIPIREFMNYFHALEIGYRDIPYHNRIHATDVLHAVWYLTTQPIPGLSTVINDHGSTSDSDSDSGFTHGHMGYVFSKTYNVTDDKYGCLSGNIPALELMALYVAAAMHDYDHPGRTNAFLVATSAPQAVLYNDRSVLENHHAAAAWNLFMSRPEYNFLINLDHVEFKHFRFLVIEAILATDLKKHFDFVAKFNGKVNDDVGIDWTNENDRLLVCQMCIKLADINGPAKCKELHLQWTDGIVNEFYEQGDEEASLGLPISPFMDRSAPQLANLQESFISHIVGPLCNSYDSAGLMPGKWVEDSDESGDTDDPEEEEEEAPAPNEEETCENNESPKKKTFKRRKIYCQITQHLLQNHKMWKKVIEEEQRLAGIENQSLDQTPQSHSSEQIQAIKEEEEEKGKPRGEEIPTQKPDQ

For the compound `CNC(=O)c1ccc(-n2cc3c(n2)CN(Cc2ccc4c([nH]c(=O)c5c(C)cnn54)c2F)C3)cn1` [Example 1-1, 5-(5-((6-fluoro-3-methyl-4-oxo-4,5-dihydropyrazolo[1,5-a]quinoxalin-7-yl)methyl)-5,6-dihydropyrrolo[3,4-c]pyrazol-2(4H)-yl)-N-methylpicolinamide], the IC50 at PDE3A is above 30 µM; in the assay on MDA-MB-436 cells it was 2.13 nM.

On to `Cc1cnn2c1c(=O)[nH]c1c(F)c(CN3Cc4cn(-c5ccc(C(=O)NC6CC6)nc5)nc4C3)ccc12` [Example 8, 5-(5-((6-fluoro-3-methyl-4-oxo-4,5-dihydropyrazolo[1,5-a]quinoxalin-7-yl)methyl)-5,6-dihydropyrrolo[3,4-c]pyrazol-2(4H)-yl)-N-cyclopropylpicolinamide], for which the IC50 is above 30 µM at PDE3A and 4.11 nM with MDA-MB-436 cells.

`CNC(=O)c1ccc(-n2cc3c(n2)CCN(Cc2ccc4c([nH]c(=O)c5c(C)cnn54)c2F)C3)cn1` [Example 10-1, 5-(5-((6-fluoro-3-methyl-4-oxo-4,5-dihydropyrazolo[1,5-a]quinoxalin-7-yl)methyl)-4,5,6,7-tetrahydro-2H-pyrazolo[4,3-c]pyridin-2-yl)-N-methylpicolinamide]: the values for the IC50 (with MDA-MB-436 cells; in assay [1]) were above 100 nM and above 10000 nM, respectively.

Regarding `CNC(=O)c1ccc(-n2ncc3c2CCN(Cc2ccc4c([nH]c(=O)c5c(C)cnn54)c2F)C3)cn1` [Example 10-2, 5-(5-((6-fluoro-3-methyl-4-oxo-4,5-dihydropyrazolo[1,5-a]quinoxalin-7-yl)methyl)-4,5,6,7-tetrahydro-1H-pyrazolo[4,3-c]pyridin-1-yl)-N-methylpicolinamide], the values for the IC50 (in the assay on MDA-MB-436 cells; in assay [1]) were above 100 nM and above 10000 nM, respectively.

`CNC(=O)c1ccc(-n2cc3c(n2)CCN(Cc2ccc4c([nH]c(=O)c5c(C)cnn54)c2F)C3)c(C)n1` [Example 11, 5-(5-((6-fluoro-3-methyl-4-oxo-4,5-dihydropyrazolo[1,5-a]quinoxalin-7-yl)methyl)-4,5,6,7-tetrahydro-2H-pyrazolo[4,3-c]pyridin-2-yl)-N,6-dimethylpicolinamide]: the IC50 on PDE3A is above 30 µM; with MDA-MB-436 cells, above 100 nM.

`CNC(=O)c1ccc(-n2cc3c(n2)CCN(Cc2ccc4c([nH]c(=O)c5c(C)cnn54)c2F)C3)c(F)n1` [Example 12, 5-(5-((6-fluoro-3-methyl-4-oxo-4,5-dihydropyrazolo[1,5-a]quinoxalin-7-yl)methyl)-4,5,6,7-tetrahydro-2H-pyrazolo[4,3-c]pyridin-2-yl)-6-fluoro-N-methylpicolinamide]: the IC50 is above 30 µM at PDE3A and above 100 nM in the assay with MDA-MB-436 cells.

Turning to `O=C(NC1CC1)c1ccc(-n2cc3c(n2)CN(Cc2ccc4c([nH]c(=O)c5c(F)cnn54)c2F)C3)c(F)n1` [Example 21, N-cyclopropyl-5-(5-((3,6-difluoro-4-oxo-4,5-dihydropyrazolo[1,5-a]quinoxalin-7-yl)methyl)-5,6-dihydropyrrolo[3,4-c]pyrazol-2(4H)-yl)-6-fluoropicolinamide], the figures for the IC50 (in the assay with MDA-MB-436 cells; in assay [1]) were 2.14 nM and above 10000 nM, respectively.

For `CNC(=O)c1ccc(-n2cc3c(n2)CN(Cc2ccc4c([nH]c(=O)c5c(C(F)(F)F)cnn54)c2F)C3)c(F)n1` [Example 26, 5-(5-((6-fluoro-4-oxo-3-(trifluoromethyl)-4,5-dihydropyrazolo[1,5-a]quinoxalin-7-yl)methyl)-5,6-dihydropyrrolo[3,4-c]pyrazol-2(4H)-yl)-6-fluoro-N-methylpicolinamide], the IC50 with MDA-MB-436 cells was determined as 13 nM; in assay [1], 64 nM.

In the case of `CNC(=O)c1ccc(-c2nc3c([nH]2)CN(Cc2ccc4c([nH]c(=O)c5c(C)cnn54)c2F)C3)cn1` [Example 34, 5-(5-((6-fluoro-3-methyl-4-oxo-4,5-dihydropyrazolo[1,5-a]quinoxalin-7-yl)methyl)-1,4,5,6-tetrahydropyrrolo[3,4-d]imidazol-2-yl)-N-methylpicolinamide], the IC50 with MDA-MB-436 cells stood at 3.33 nM; in assay [1] it was 40 nM.

Take `CNC(=O)c1ccc(-c2nc3c(o2)CN(Cc2ccc4c([nH]c(=O)c5c(F)cnn54)c2F)C3)cn1` [Example 41, 5-(5-((3,6-difluoro-4-oxo-4,5-dihydropyrazolo[1,5-a]quinoxalin-7-yl)methyl)-5,6-dihydro-4H-pyrrolo[3,4-d]oxazol-2-yl)-N-methylpicolinamide]: the IC50 in the assay with MDA-MB-436 cells was 1.6 nM; in assay [1] it was 61.1 nM.

On to `CNC(=O)c1ccc(-c2nc3c([nH]2)CN(Cc2ccc4c([nH]c(=O)c5c(F)cnn54)c2F)C3)cn1` [Example 43, 5-(5-((3,6-difluoro-4-oxo-4,5-dihydropyrazolo[1,5-a]quinoxalin-7-yl)methyl)-1,4,5,6-tetrahydropyrrolo[3,4-d]imidazol-2-yl)-N-methylpicolinamide], for which the results for the IC50 (in the assay on MDA-MB-436 cells; in assay [1]) were 2.84 nM and 5.18 nM, respectively.

With `CCNC(=O)c1ccc(-n2cc3c(n2)CN(Cc2ccc4c([nH]c(=O)n5cc(C)nc45)c2F)C3)cn1` [Example 50, N-ethyl-5-(5-((7-fluoro-2-methyl-5-oxo-5,6-dihydroimidazo[1,2-c]quinazolin-8-yl)methyl)-5,6-dihydropyrrolo[3,4-c]pyrazol-2(4H)-yl)picolinamide], the IC50 in the assay on MDA-MB-436 cells came out at 1.01 nM; in assay [1], 180 nM.

Turning to `CCNC(=O)c1ccc(-n2cc3c(n2)CN(Cc2ccc4c([nH]c(=O)c5occc54)c2F)C3)cn1` [Example 53, N-ethyl-5-(5-((6-fluoro-4-oxo-4,5-dihydrofuro[2,3-c]quinolin-7-yl)methyl)-5,6-dihydropyrrolo[3,4-c]pyrazol-2(4H)-yl)picolinamide], the results for the IC50 (in the assay with MDA-MB-436 cells; in assay [1]) were 1.21 nM and 157 nM, respectively.

Regarding `CNC(=O)c1ccc(-n2cc3c(n2)CN(Cc2ccc4c([nH]c(=O)c5cc(F)nn54)c2F)C3)c(F)n1` [Example 56, 5-(5-((2,6-difluoro-4-oxo-4,5-dihydropyrazolo[1,5-a]quinoxalin-7-yl)methyl)-5,6-dihydropyrrolo[3,4-c]pyrazol-2(4H)-yl)-6-fluoro-N-methylpicolinamide], the IC50 was 4.66 nM in the assay with MDA-MB-436 cells and 2760 nM in assay [1].

`CNC(=O)c1ccc(-n2cc3c(c2)CN(Cc2ccc4c([nH]c(=O)c5c(F)cnn54)c2F)C3)c(F)n1` [Example 62, 5-(5-((3,6-difluoro-4-oxo-4,5-dihydropyrazolo[1,5-a]quinoxalin-7-yl)methyl)-5,6-dihydropyrrolo[3,4-c]pyrrol-2(4H)-yl)-6-fluoro-N-methylpicolinamide]: the IC50 in the assay with MDA-MB-436 cells worked out at 0.44 nM; in assay [1], 278 nM.

As for `CNC(=O)c1ccc(-n2cc3c(c2)CN(Cc2ccc4c([nH]c(=O)c5c(C)cnn54)c2F)C3)c(F)n1` [Example 63, 6-fluoro-5-(5-((6-fluoro-3-methyl-4-oxo-4,5-dihydropyrazolo[1,5-a]quinoxalin-7-yl)methyl)-5,6-dihydropyrrolo[3,4-c]pyrrol-2(4H)-yl)-N-methylpicolinamide], the IC50 with MDA-MB-436 cells is 0.85 nM; in assay [1], above 10000 nM.
